The target of this assay is Nav1.6 (Homo sapiens, UniProt Q9UQD0). As to the kind of experiment: Nav two-pulse protocol, IonWorks Quattro electrophysiology. In kind it is cell-based. The note with it: -120 mV to 0 mV, compound incubated 300 s. The protocol: Compound Plate Preparation
Supplied compounds were sent as Assay Ready Plates, with 2 μL per well of compound in DMSO at 300× the final assay concentrations as described above and in the project proposal. All assay plates are stored at in a −80° C. freezer.
On the day of the assay, 198 μL of external solution was added to the appropriate assay plate and mixed thoroughly. This provided a 1:100 dilution. A further 1:3 dilution occurred upon addition to the cells in the IonWorks, giving a 1:300 dilution in total.
On each assay plate, at least 8 wells were reserved for vehicle control (0.3% DMSO) and at least 8 wells for each positive control specific to the cell line tested. The positive controls were tested in an 8-point dose response with 3-fold dilutions to determine an IC50 value for each run. The positive control compounds are outlined below.
Ion Channel Positive Control & Concentrations
Nav1.6/1.2 Lidocaine: 8, 3-fold dilutions starting at 100 μM
Electrophysiological Recording Solutions
The solutions for recording currents were are follows:
Amphotericin B was used to obtain electrical access to the cell interior at a final concentration of 200 μg/ml in internal recording solution.
Experimental Protocols & Data Analysis
Nav currents were evoked by stepping from a holding potential of −120 mV to 0 mV for 2.5 s (pulse 1), followed by a 5 ms inter-pulse interval, and stepping from a holding potential of −120 mV to 0 mV for 20 ms (pulse 2). The voltage protocol was applied (Pre), compounds added, incubated for 300 seconds, and the voltage protocol was applied a final time (Post) on the IonWorks Quattro.
The parameters measured were the maximum inward current evoked on stepping to 0 mV from the 1st and 2nd pulse. All data were filtered for seal quality, seal drop, and current amplitude. The peak current amplitude (Peak) was calculated before (Pre) and after (Post) compound addition to the amount of block was assessed by dividing the Post-compound current amplitude by the Pre-compound current amplitude. These procedures were implemented for the 1st and 2nd pulse.
Background: The patch-clamp technique gives a direct electrical read-out from membranes.

From patent US9676757B2, “Heterocyclic compounds as NaV channel inhibitors and uses thereof” (Merck Patent GmbH, priority 2014, dated 2017) come the findings set out here.

SMILES strings stand for the structures. Read-outs that look alike come from different tables or passages of the source.

Chain of Nav1.6 (Q9UQD0 whole entry): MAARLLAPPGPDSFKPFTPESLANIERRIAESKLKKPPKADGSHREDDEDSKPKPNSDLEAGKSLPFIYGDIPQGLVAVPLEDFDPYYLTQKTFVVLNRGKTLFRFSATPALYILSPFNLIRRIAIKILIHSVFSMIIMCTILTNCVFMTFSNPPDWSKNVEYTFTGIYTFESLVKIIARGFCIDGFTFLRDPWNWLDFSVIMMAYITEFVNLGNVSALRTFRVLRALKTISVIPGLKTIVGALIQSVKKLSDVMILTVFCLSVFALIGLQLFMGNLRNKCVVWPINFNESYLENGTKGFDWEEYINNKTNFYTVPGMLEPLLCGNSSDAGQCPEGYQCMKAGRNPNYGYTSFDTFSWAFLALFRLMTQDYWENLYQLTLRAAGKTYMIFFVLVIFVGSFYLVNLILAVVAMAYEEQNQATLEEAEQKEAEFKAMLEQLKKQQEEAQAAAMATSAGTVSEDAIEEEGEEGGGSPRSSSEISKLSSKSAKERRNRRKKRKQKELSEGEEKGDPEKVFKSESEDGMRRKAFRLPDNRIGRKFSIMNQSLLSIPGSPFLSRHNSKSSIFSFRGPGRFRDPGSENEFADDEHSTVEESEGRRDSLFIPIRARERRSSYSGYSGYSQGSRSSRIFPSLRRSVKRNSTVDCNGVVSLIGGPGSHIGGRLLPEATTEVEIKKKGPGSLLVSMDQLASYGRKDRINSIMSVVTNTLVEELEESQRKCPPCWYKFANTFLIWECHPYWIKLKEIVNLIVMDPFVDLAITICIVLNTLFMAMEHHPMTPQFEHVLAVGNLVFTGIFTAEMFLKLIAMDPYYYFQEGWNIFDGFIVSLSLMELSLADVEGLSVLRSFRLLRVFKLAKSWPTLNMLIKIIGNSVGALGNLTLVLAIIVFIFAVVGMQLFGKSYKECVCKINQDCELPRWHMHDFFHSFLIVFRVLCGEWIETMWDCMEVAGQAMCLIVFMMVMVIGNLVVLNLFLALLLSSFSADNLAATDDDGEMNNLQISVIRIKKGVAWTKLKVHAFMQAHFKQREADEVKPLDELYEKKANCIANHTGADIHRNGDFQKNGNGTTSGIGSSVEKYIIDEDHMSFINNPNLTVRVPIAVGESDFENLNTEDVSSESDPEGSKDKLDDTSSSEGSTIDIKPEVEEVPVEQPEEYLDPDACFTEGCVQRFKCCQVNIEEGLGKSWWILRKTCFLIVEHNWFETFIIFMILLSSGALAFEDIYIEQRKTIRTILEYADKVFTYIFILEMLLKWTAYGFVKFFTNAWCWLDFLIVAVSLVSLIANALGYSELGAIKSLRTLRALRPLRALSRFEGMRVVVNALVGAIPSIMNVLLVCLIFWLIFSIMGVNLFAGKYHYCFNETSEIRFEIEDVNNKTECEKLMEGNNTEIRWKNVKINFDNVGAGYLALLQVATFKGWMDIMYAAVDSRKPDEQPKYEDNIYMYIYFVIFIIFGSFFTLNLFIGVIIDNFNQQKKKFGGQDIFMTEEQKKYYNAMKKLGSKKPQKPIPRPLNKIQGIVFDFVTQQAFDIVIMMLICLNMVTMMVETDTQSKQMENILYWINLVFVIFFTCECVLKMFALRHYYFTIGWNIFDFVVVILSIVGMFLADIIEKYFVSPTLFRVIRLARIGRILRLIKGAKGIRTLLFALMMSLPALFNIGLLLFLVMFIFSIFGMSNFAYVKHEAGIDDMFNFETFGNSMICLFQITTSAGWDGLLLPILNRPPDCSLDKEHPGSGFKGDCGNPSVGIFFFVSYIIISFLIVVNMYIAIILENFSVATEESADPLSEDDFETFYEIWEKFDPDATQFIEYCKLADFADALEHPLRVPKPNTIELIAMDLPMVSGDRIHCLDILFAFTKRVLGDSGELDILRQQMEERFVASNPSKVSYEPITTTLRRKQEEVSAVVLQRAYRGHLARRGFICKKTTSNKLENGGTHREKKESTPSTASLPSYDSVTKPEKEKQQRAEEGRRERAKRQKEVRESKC

As to `COc1ccc(-c2nc(C3CCN(Cc4cccc(OCC(C)C)c4)C3)no2)nc1` (stereo not shown) [Compound 54, 2-{3-[1-(3-Isobutoxy-benzyl)-pyrrolidin-3-yl]-[1,2,4]oxadiazol-5-yl}-5-methoxy-pyridine], the IC50 reads like this: (read-out: Nav1.6 Tonic) above 20 µM; (read-out: Nav1.6 inac) 1 to 5 µM.

In the case of `COc1ccc(Oc2cccc(CN3CCC(C(=O)NCc4ccccn4)C3)c2)cc1` (stereo not shown) [Compound 6, 1-[3-(4-Methoxy-phenoxy)-benzyl]-pyrrolidine-3-carboxylic acid (pyridin-2-ylmethyl)-amide], the IC50 is, setting by setting: (read-out: Nav1.6 Tonic) above 20 µM; (read-out: Nav1.6 inac) above 5 µM.

Take `Cc1ccc(F)cc1CNC(=O)C1CCN(Cc2cccc(Oc3ccccc3)c2)C1` (stereo not shown) [Compound 84, 1-(3-Phenoxy-benzyl)-pyrrolidine-3-carboxylic acid 5-fluoro-2-methyl-benzylamide]: the IC50 was 10 to 20 µM (read-out: Nav1.6 Tonic) and below 1 µM (read-out: Nav1.6 inac).

For `CC1(C(=O)N2CCNCC2)CCN(Cc2cccc(Oc3ccccc3)c2)C1` (stereo not shown) [Compound 39, [3-Methyl-1-(3-phenoxy-benzyl)-pyrrolidin-3-yl]-piperazin-1-yl-methanone], the IC50 is above 20 µM (read-out: Nav1.6 Tonic) and 1 to 5 µM (read-out: Nav1.6 inac).

As to `O=C(NCc1ccccn1)C1CN(Cc2cccc(Oc3ccccc3)c2)CCO1` (stereo not shown) [Compound 105, 4-(3-Phenoxy-benzyl)-morpholine-2-carboxylic acid (pyridin-2-ylmethyl)-amide], the IC50 was above 20 µM (read-out: Nav1.6 Tonic) and 1 to 5 µM (read-out: Nav1.6 inac).

With `O=C(NCc1ccccn1)C1CCN(Cc2ccc(F)c(Oc3ccccc3)c2)C1` (stereo not shown) [Compound 15, 1-(4-Fluoro-3-phenoxy-benzyl)-pyrrolidine-3-carboxylic acid (pyridin-2-ylmethyl)-amide], the IC50 reads like this: (read-out: Nav1.6 Tonic) above 20 µM; (read-out: Nav1.6 inac) above 5 µM.

Take `O=C(NCC1CCCO1)C1CCN(Cc2cccc(Oc3ccccc3)c2)C1` (stereo not shown) [Compound 87, 1-(3-Phenoxy-benzyl)-pyrrolidine-3-carboxylic acid (tetrahydro-furan-2-ylmethyl)-amide]: the IC50 runs as follows: (read-out: Nav1.6 Tonic) below 10 µM; (read-out: Nav1.6 inac) below 1 µM.

On to `O=C(NCc1cccc(Cl)c1)C1CCN(Cc2cccc(Oc3ccccc3)c2)C1` (stereo not shown) [Compound 69, 1-(3-Phenoxy-benzyl)-pyrrolidine-3-carboxylic acid 3-chloro-benzylamide], for which the IC50 runs as follows: (read-out: Nav1.6 Tonic) above 20 µM; (read-out: Nav1.6 inac) below 1 µM.

Consider `COc1ccc(CNC(=O)C2CCN(Cc3cccc(Oc4ccccc4)c3)C2)cc1` (stereo not shown) [Compound 66, 1-(3-Phenoxy-benzyl)-pyrrolidine-3-carboxylic acid 4-methoxy-benzylamide], for which the IC50 runs as follows: (read-out: Nav1.6 Tonic) 10 to 20 µM; (read-out: Nav1.6 inac) below 1 µM.

In the case of `Cc1ccc(CNC(=O)C2CCN(Cc3cccc(OCC(F)(F)F)c3)C2)nc1` (stereo not shown) [Compound 97, 1-[3-(2,2,2-Trifluoro-ethoxy)-benzyl]-pyrrolidine-3-carboxylic acid (5-methyl-pyridin-2-ylmethyl)-amide], the IC50 (read-out: Nav1.6 Tonic) was above 20 µM and the IC50 (read-out: Nav1.6 inac) is above 5 µM.

For the compound `O=C(NCc1ccccn1)C1(O)CCN(Cc2cccc(Oc3ccccc3)c2)C1=O` (stereo not shown) [Compound 94, 3-Hydroxy-2-oxo-1-(3-phenoxy-benzyl)-pyrrolidine-3-carboxylic acid (pyridin-2-ylmethyl)-amide], the IC50 reads like this: (read-out: Nav1.6 Tonic) above 20 µM; (read-out: Nav1.6 inac) 1 to 5 µM.

For the compound `O=C(NCc1cccs1)C1CCN(Cc2cccc(Oc3ccccc3)c2)C1` (stereo not shown) [Compound 88, 1-(3-Phenoxy-benzyl)-pyrrolidine-3-carboxylic acid (thiophen-2-ylmethyl)-amide], the IC50 runs as follows: (read-out: Nav1.6 Tonic) above 20 µM; (read-out: Nav1.6 inac) below 1 µM.

On to `O=C(NCc1ccccn1)C1(F)CCN(Cc2cccc(Oc3ccc(F)c(F)c3)c2)C1` (stereo not shown) [Compound 24, 1-[3-(3,4-Difluoro-phenoxy)-benzyl]-3-fluoro-pyrrolidine-3-carboxylic acid (pyridin-2-ylmethyl)-amide], for which the IC50 (read-out: Nav1.6 Tonic) was above 20 µM and the IC50 (read-out: Nav1.6 inac) fell in the range of 1 to 5 µM.

For `CC(C)COc1cccc(CN2CCC(c3noc(-c4ccc(F)cn4)n3)C2)c1` (stereo not shown) [Compound 59, 5-Fluoro-2-{3-[1-(3-isobutoxy-benzyl)-pyrrolidin-3-yl]-[1,2,4]oxadiazol-5-yl}-pyridine], the IC50 runs as follows: (read-out: Nav1.6 Tonic) above 20 µM; (read-out: Nav1.6 inac) above 5 µM.

With `CC(C)COc1cccc(CN2CCC(c3noc(-c4cc(Br)ccn4)n3)C2)c1` (stereo not shown) [Compound 58, 4-Bromo-2-{3-[1-(3-isobutoxy-benzyl)-pyrrolidin-3-yl]-[1,2,4]oxadiazol-5-yl}-pyridine], the IC50 is above 20 µM (read-out: Nav1.6 Tonic) and above 5 µM (read-out: Nav1.6 inac).

For `CCNC(=O)C1(C)CCN(Cc2cccc(OC(F)(F)F)c2)C1` (stereo not shown) [Compound 41, 3-Methyl-1-(3-trifluoromethoxy-benzyl)-pyrrolidine-3-carboxylic acid ethylamide], the IC50 is 10 to 20 µM (read-out: Nav1.6 Tonic) and below 1 µM (read-out: Nav1.6 inac).

As for `CCNC(=O)C1CN(Cc2cccc(Oc3ccccc3)c2)CCO1` (stereo not shown) [Compound 100, 4-(3-Phenoxy-benzyl)-morpholine-2-carboxylic acid ethylamide], the IC50 lay within 10 to 20 µM (read-out: Nav1.6 Tonic) and 1 to 5 µM (read-out: Nav1.6 inac).

In the case of `Cc1cccc(Oc2cccc(CN3CCC(C(=O)NCc4ccccn4)C3)c2)c1` (stereo not shown) [Compound 43, 1-(3-m-Tolyloxy-benzyl)-pyrrolidine-3-carboxylic acid (pyridin-2-ylmethyl)-amide], the IC50 reads like this: (read-out: Nav1.6 Tonic) above 20 µM; (read-out: Nav1.6 inac) above 5 µM.

`O=C(NCc1cc(F)ccc1F)C1CCN(Cc2cccc(Oc3ccccc3)c2)C1` (stereo not shown) [Compound 77, 1-(3-Phenoxy-benzyl)-pyrrolidine-3-carboxylic acid 2,5-difluoro-benzylamide]: the IC50 reads like this: (read-out: Nav1.6 Tonic) 10 to 20 µM; (read-out: Nav1.6 inac) below 1 µM.

In the case of `O=C(NCc1ccccn1)C1CCN(Cc2cccc(Oc3cccc(C(F)(F)F)c3)c2)C1` (stereo not shown) [Compound 5, 1-[3-(3-Trifluoromethyl-phenoxy)-benzyl]-pyrrolidine-3-carboxylic acid (pyridin-2-ylmethyl)-amide], the IC50 reads like this: (read-out: Nav1.6 Tonic) above 20 µM; (read-out: Nav1.6 inac) below 1 µM.

As for `CCC(NC(=O)C1(C)CCN(Cc2cccc(Oc3ccccc3)c2)C1)c1cccnc1` (stereo not shown) [Compound 103, 3-Methyl-1-(3-phenoxy-benzyl)-pyrrolidine-3-carboxylic acid (1-pyridin-3-yl-propyl)-amide], the IC50 was above 20 µM (read-out: Nav1.6 Tonic) and above 5 µM (read-out: Nav1.6 inac).

For the compound `CC1(C)Oc2ccc(CN3CCC(C(=O)NCc4ccccn4)C3)cc2O1` (stereo not shown) [Compound 33, 1-(2,2-Dimethyl-benzo[1,3]dioxol-5-ylmethyl)-pyrrolidine-3-carboxylic acid (pyridin-2-ylmethyl)-amide], the IC50 is, setting by setting: (read-out: Nav1.6 Tonic) above 20 µM; (read-out: Nav1.6 inac) 1 to 5 µM.

With `O=C(NCc1ncccc1F)C1CCN(Cc2cccc(OCC(F)(F)F)c2)C1` (stereo not shown) [Compound 98, 1-[3-(2,2,2-Trifluoro-ethoxy)-benzyl]-pyrrolidine-3-carboxylic acid (3-fluoro-pyridin-2-ylmethyl)-amide], the IC50 is above 20 µM (read-out: Nav1.6 Tonic) and above 5 µM (read-out: Nav1.6 inac).

In the case of `O=C(NCc1ccccn1)C1CCN(Cc2ccc3c(c2)OC(F)(F)O3)C1` (stereo not shown) [Compound 31, 1-(2,2-Difluoro-benzo[1,3]dioxol-5-ylmethyl)-pyrrolidine-3-carboxylic acid (pyridin-2-ylmethyl)-amide], the IC50 is, setting by setting: (read-out: Nav1.6 Tonic) above 20 µM; (read-out: Nav1.6 inac) 1 to 5 µM.

As for `CC(C)C[S+]([O-])c1cccc(CN2CCC(C(=O)NCc3ccccn3)C2)c1` (stereo not shown) [Compound 42, 1-[3-(2-Methyl-propane-1-sulfinyl)-benzyl]-pyrrolidine-3-carboxylic acid (pyridin-2-ylmethyl)-amide], the IC50 (read-out: Nav1.6 Tonic) is above 20 µM and the IC50 (read-out: Nav1.6 inac) was above 5 µM.

For `CC1(C(=O)NCc2ccccn2)CCN(Cc2cccc(Oc3ncccn3)c2)C1` (stereo not shown) [Compound 27, 3-Methyl-1-[3-(pyrimidin-2-yloxy)-benzyl]-pyrolidine-3-carboxylic acid (pyridin-2-ylmethyl)-amide], the IC50 was above 20 µM (read-out: Nav1.6 Tonic) and above 5 µM (read-out: Nav1.6 inac).

Take `O=C(NCc1ccccn1)C1CCN(Cc2cccc(-c3ccccc3)c2)C1` (stereo not shown) [Compound 29, 1-Biphenyl-3-ylmethyl-pyrrolidine-3-carboxylic acid (pyridin-2-ylmethyl)-amide]: the IC50 is 10 to 20 µM (read-out: Nav1.6 Tonic) and 1 to 5 µM (read-out: Nav1.6 inac).

Regarding `O=C(NCc1ccc(OC(F)(F)F)cc1)C1CCN(Cc2cccc(Oc3ccccc3)c2)C1` (stereo not shown) [Compound 67, 1-(3-Phenoxy-benzyl)-pyrrolidine-3-carboxylic acid 4-trifluoromethoxy-benzylamide], the IC50 was 10 to 20 µM (read-out: Nav1.6 Tonic) and below 1 µM (read-out: Nav1.6 inac).

In the case of `O=C(NCc1ccccn1)C1(O)CCN(Cc2cccc(Oc3ccccc3)c2)C1` (stereo not shown) [Compound 93, 3-hydroxy-1-(phenyloxy-benzyl)-pyrrolidine-3-carboxylic acid (pyridin-2-ylmethyl)-amide], the IC50 runs as follows: (read-out: Nav1.6 Tonic) above 20 µM; (read-out: Nav1.6 inac) 1 to 5 µM.
